Experimental data reported in USRE30241E, “Esters of 3-(hydroxy or hydroxymethyl)-4-hydroxyphenyl aminomethyl ketones” (Sterling Drug Inc., priority 1970, dated 1980).
Like-named read-outs stand apart in the source and are kept apart here.

How the values were obtained:
[1] = system: carbachol- or histamine-induced bronchoconstriction; test: Bronchodilator Test Method I, anesthetized dog, intravenous activity; type: in vivo; conditions: Canis lupus familiaris, read-out: Bronchodilatation; for inhibition in vivo at 0.0056 mg/kg: 5.6 mcg/kg i.v.; for inhibition in vivo at 0.0112 mg/kg: 11.2 mcg/kg i.v.; for inhibition in vivo at 0.112 mg/kg: 112.0 mcg/kg i.v.; for inhibition in vivo at 0.0224 mg/kg: 22.4 mcg/kg i.v.; for inhibition in vivo at 0.0285 mg/kg: 28.5 mcg/kg i.v.; for inhibition in vivo at 0.114 mg/kg: 114 mcg/kg i.v.; for inhibition in vivo at 0.228 mg/kg: 228 mcg/kg i.v.; for inhibition in vivo at 0.0012 mg/kg: 1.2 mcg/kg i.v.; for inhibition in vivo at 0.003 mg/kg: 3.0 mcg/kg i.v.
How it was run: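 Pentobarbital-anesthetized (30 mg/kg i.v.), open-chest, artificially ventilated dogs were given i.v. carbachol (4-6 µg/kg) or histamine diphosphate (35-45 µg/kg). Test compound was given i.v. mixed with, after, or 1-10 min before the constrictor.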

[2] = system: guinea pig bronchioles constricted by carbachol; test: Bronchodilator Test Method II, in vitro perfused guinea pig lung; conditions: for ED50: carbachol (Doryl) 1:5 million
Procedure: In this method bronchodilator activity in vitro was determined by testing the effect of graded doses of the test compounds on guinea pig bronchioles constricted by carbachol, using the technique reported by Sollman and von Oettingen, Proc. Soc, Exp. Biol. Med., 25,692 (1928) as modified by Tainter, Pedden, and James, J. Pharm. Exp. Ther., 51, 371 (1934) and by Luduena, von Euler, Tullar, and Lands, Arch. intern. Pharmacol., III, 392 (1957).

[3] = Solubility and pH of salts

## CC(C)(C)NCC(O)c1ccc(OC(=O)C(C)(C)C)c(OC(=O)C(C)(C)C)c1.Cl (stereo not drawn) [Example 5, 3,4-bis(pivalyloxy)-alpha-(tert-butylaminomethyl)benzyl alcohol hydrochloride]
[1]; 5 min, 2.8 mcg/kg i.v., 5 min
  inhibition in vivo at 0.0028 mg/kg: 14%
[1]; 5 min, 5 min
  inhibition in vivo at 0.0056 mg/kg: 53%
  inhibition in vivo at 0.0112 mg/kg: 57%
  inhibition in vivo at 0.112 mg/kg: 100%
[1]; 0.5 h, 30 min
  inhibition in vivo at 0.0056 mg/kg: 27%
  inhibition in vivo at 0.0112 mg/kg: 30%
  inhibition in vivo at 0.0224 mg/kg: 81%
  inhibition in vivo at 0.112 mg/kg: 92%
[1]; 1 h, 60 min
  inhibition in vivo at 0.0056 mg/kg: 26%
  inhibition in vivo at 0.0112 mg/kg: 4%
  inhibition in vivo at 0.0224 mg/kg: 62%
  inhibition in vivo at 0.112 mg/kg: 59%
[1]; 2 h, 120 min
  inhibition in vivo at 0.0224 mg/kg: 62%
  inhibition in vivo at 0.112 mg/kg: 13%
[1]; 3 h, 180 min
  inhibition in vivo at 0.0224 mg/kg: 15%
[1]; 4 h, 240 min
  inhibition in vivo at 0.0224 mg/kg: 0%
[2]; hydrochloride
  ED50: 0.94 µg (base)
[2]; dose 2 mcg (base)
  Duration, Mean: 18 ± 4.2 min
[3]; water
  solubility: ≥ 50000 µg/mL

## CC(C)(C)CC(=O)Oc1ccc(C(O)CNC(C)(C)C)cc1OC(=O)CC(C)(C)C.Cl (stereo not drawn) [Example 7, 3,4-bis(3,3-dimethylbutanoyloxy)-alpha-(tert-butylaminomethyl)benzyl alcohol hydrochloride]
[1]; 5 min, 5 min
  inhibition in vivo at 0.0285 mg/kg: 28%
  inhibition in vivo at 0.114 mg/kg: 52%
  inhibition in vivo at 0.228 mg/kg: 98%
[1]; 0.5 h, 30 min
  inhibition in vivo at 0.0285 mg/kg: 32%
  inhibition in vivo at 0.114 mg/kg: 42%
  inhibition in vivo at 0.228 mg/kg: 77%
[1]; 1 h, 60 min
  inhibition in vivo at 0.0285 mg/kg: 24%
  inhibition in vivo at 0.114 mg/kg: 33%
  inhibition in vivo at 0.228 mg/kg: 68%
[1]; 2 h, 120 min
  inhibition in vivo at 0.0285 mg/kg: 24%
  inhibition in vivo at 0.114 mg/kg: 25%
  inhibition in vivo at 0.228 mg/kg: 56%
[1]; 3 h, 180 min
  inhibition in vivo at 0.0285 mg/kg: 22%
  inhibition in vivo at 0.114 mg/kg: 19%
  inhibition in vivo at 0.228 mg/kg: 50%
[1]; 4 h, 240 min
  inhibition in vivo at 0.0285 mg/kg: 23%
  inhibition in vivo at 0.228 mg/kg: 44%
[2]
  ED50: 23 µg (base)
[2]; dose 32 mcg (base)
  Duration, Mean: 85 ± 17 min
[3]; water
  solubility: ≥ 10000 µg/mL

## CC(C)(C)NCC(O)c1ccc(OC(=O)C2CCCCC2)c(OC(=O)C2CCCCC2)c1.Cl (stereo not drawn) [Example 15, 3,4-bis(cyclohexanecarbonyloxy)-alpha-(tert-butylaminomethyl)benzyl alcohol hydrochloride]
[1]; 2 min, 2 min
  inhibition in vivo at 0.0012 mg/kg: 20%
  inhibition in vivo at 0.003 mg/kg: 36%
[1]; 0.5 h, 30 min
  inhibition in vivo at 0.0012 mg/kg: 27%
[1]; 1 h, 60 min
  inhibition in vivo at 0.0012 mg/kg: 8%
  inhibition in vivo at 0.003 mg/kg: 31%
[1]; 2 h, 120 min
  inhibition in vivo at 0.0012 mg/kg: 0%
  inhibition in vivo at 0.003 mg/kg: 26%
[1]; 3 h, 180 min
  inhibition in vivo at 0.003 mg/kg: 20%
[2]
  ED50: 1.3 µg (base)
[2]; dose 3.2 mcg (base)
  Duration, Mean: 53 ± 7 min
[3]; 1 percent solution in dimethyl sulfoxide
  precipitation on dilution with three volumes of water: no precipitate formed
[3]; polyethyleneglycol, organic solvent or mixture
  solubility: < 1000 µg/mL
[3]; water
  solubility: < 1000 µg/mL
